We go through three compounds from patent US20190308988A1, “OPIOID RECEPTOR ANTAGONIST PRODRUGS” (Nirsum Laboratories, Inc., priority 2017, published 2019).

Data set [1] in a line: Liver S9 fraction stability, monkey. The format is in vitro ADME, cynomolgus monkey. The note with it: monkey liver S9 1.0 mg/ml, 2 μM, 37° C. The protocol:
(§1) Liver S9 fraction stability determination of the test compounds in dog, cynomolgus monkey and human is performed using HPLC-MS. Test compound (2 μM, 0.1% DMSO, 1% Methanol final concentration) was assessed for stability in a 50 μl phosphate buffer containing 1.0 mg/ml S9 protein from each of the three species and 5 mM D-saccharic acid-1, 4-lactone. Samples were incubated at 37° C. for 60 minutes and the % compound remaining was assessed.

A short description of data set [2]: Liver S9 fraction stability, human. The format is in vitro ADME. The note with it: human liver S9 1.0 mg/ml, 2 μM, 37° C. The protocol: as §1
Data set [3] is described as follows: Plasma stability, monkey plasma (HPLC-MS). The note with it: 2 μM, 37° C. The format is in vitro ADME, Cynomolgus Monkey. The protocol:
(§2) Plasma Stability Determination of the Test Compounds in Rat, Dog, Cynomolgus Monkey and human plasma is performed using HPLC-MS. For rat, incubations are carried out in 96-well polypropylene plates in 5 aliquots of 70 μL each (one for each time point). […] Five time points are analyzed (0, 15, 120, 480 and 1440 min). […] All incubations are performed in duplicates. The samples are analyzed by HPLC-MS. The percentage of parent compound remaining after incubation in plasma is determined.

Data set [4] is described as follows: Liver S9 fraction stability, dog. Format: in vitro ADME. Particulars: dog liver S9 1.0 mg/ml, 2 μM, 37° C. The protocol: as §1
Data set [5] can be described thus: Plasma stability, human plasma (HPLC-MS). Format: in vitro ADME. Particulars: 2 μM, 37° C., 120 min. The protocol: as §2
For data set [6] the following is noted: in vivo; cited from earlier work.

Take `CCCCCCCCCCCCCCCC(=O)OC1CCCn2c1nc(C)c(CCN1CCC(c3noc4cc(F)ccc34)CC1)c2=O` (stereo not drawn) [Paliperidone palmitate, reference compound]: the “% remaining at 60 minutes, Monkey” value in data set [1] is 57.4%. In addition, the “% remaining at 60 minutes, Human” value in data set [2] worked out at 47.8%. Moreover, the “% remaining at time point in minutes, 15 min” value in data set [3] is recorded as 92%. Also, the “% remaining at 60 minutes, Dog” value in data set [4] came to 56.4%.

As to `CCCCCCCCCCCC(=O)OCN1C(=O)CCc2ccc(OCCCCN3CCN(c4cccc(Cl)c4Cl)CC3)cc21` [Aripiprazole lauroxil, reference compound], in data set [1], the “% remaining at 60 minutes, Monkey” value is 56.6%. For the same compound, the “% remaining at 60 minutes, Human” value in data set [2] came to 47.8%. In addition, the “% remaining at 60 minutes, Dog” value in data set [4] worked out at 66.1%. The “% remaining at time point in minutes, 120 min” value in data set [5] is 80%.

As to `Oc1ccc2c3c1O[C@H]1[C@H](O)CC[C@@]4(O)[C@@H](C2)N(CC2CC2)CC[C@]314` [6-β-naltrexol], the mean elimination half-life entry in data set [6] is listed as “thirteen”.
